Results published in patent US20120004307A1, “ORAL TREATMENT OF DIGITAL ISCHEMIC LESIONS” (priority 2010, published 2012).
Like-named read-outs stand apart in the source and are kept apart here.

How the values were obtained:
[1] = for subjects who tolerated the dose: 10 SSc patients
Protocol: During a phase I PK trial of oral treprostinil in SSc patients, the goal was to quantify changes in perfusion as assessed by laser Doppler imaging (LDI) and to determine whether improvements in perfusion correlated with drug concentration.
10 SSc patients with recent or active DU participated in the study.
Dosing: Oral treprostinil titrated up to 4 mg twice daily (BID) as tolerated over 6-8 weeks. Pharmokinetics (PK) and laser Doppler imaging (LDI) assessments: performed when subjects achieved the 2 mg and 4 mg (or maximally tolerated dose) doses. […] 8 serial measures of digital perfusion and drug concentration were obtained over 12 hours at each of the 2 study visits.
Repeated measures analyses were performed using random effects model. Dependent variables were perfusion and skin temperature. The predictor of interest was log-transformed drug concentration. Covariates with p-values less than 0.15 were kept in the model. All data was used, across time points, visits, and hands.

[2] = DISTOL-1 randomized Phase IIB study of oral treprostinil diethanolamine versus placebo, digital ulcers in systemic sclerosis; type: in vivo, human
From the text: Primary: To assess the effect of oral treprostinil in reducing net ulcer burden compared to placebo in patients with systemic sclerosis (SSc) as measured by the change in net ulcer burden from Baseline to Follow-up between treatment groups at 20 weeks. […] Target enrollment of […] patients to complete 128 subjects. […] Primary analysis: effect of treprostinil versus placebo on change in net ulcer burden at Week 20 evaluated using non-parametric analysis of covariance within the framework of the extended Cochran-Mantel-Haenszel test.

[3] = 4 mg visit (but not the 2 mg visit), adjusted for time points of Doppler assessment
[4] = Subject 6, 4 mg visit, baseline at drug trough prior to administration of 4 mg dose
[5] = Subject 6, 4 mg visit, twelve hours after dosing

CCCCC[C@H](O)CC[C@@H]1[C@H]2Cc3cccc(OCC(=O)O)c3C[C@H]2C[C@H]1O.OCCNCCO [treprostinil diethanolamine, Treprostinil diethanolamine]
subjects who tolerated the dose ([1]; 2 mg BID by the first PK visit): Nine | subjects who tolerated the dose ([1]; 4 mg BID by the 2nd PK visit): 6 subjects | association of digital skin temperature with log-transformed plasma concentration [1, 3]: positively associated | association of perfusion with log-transformed plasma concentration [1, 3]: positively associated | perfusion versus drug exposure ([1]; AUCs, FIG. 4): increase in perfusion was observed with an increase in drug exposure | plasma concentration versus dose ([1]; AUCs, FIG. 4): increase in plasma concentration was observed with an increase in dose | mean perfusion (laser Doppler imaging) [1, 4]: 89.3 units | skin temperature [1, 4]: 25 °C | perfusion (laser Doppler imaging) [1, 5]: 298.3 units | skin temperature [1, 5]: 32 °C | adverse effects ([1]; titrated up to 4 mg BID over 6-8 weeks): transient and typical of prostacyclin therapy | change in net ulcer burden at Week 20 ([2]; ACA negative subset of patients): statistically significant changes were observed | Time to Cardinal Ulcer Healing (mean days) ([2]; Active n = 71): 76.3 ± 35 days | Time to all Ulcers Healed (mean days) ([2]; Active n = 71): 90.2 ± 35.6 days | Mean # of new ulcers ([2]; Active n = 71, listed under new ulcers formed after Week 5): 0.9 | All Ulcers Healed ([2]; Active n = 71, number (%)): 35 (49%) | Any new ulcers formed after Week 5? At least one new ([2]; Active n = 71, number (%)): 27 (38%) | Any new ulcers formed after Week 5? No new ([2]; Active n = 71, number (%)): 30 (42%) | Any new ulcers formed during study? At least one new ([2]; Active n = 71, number (%)): 39 (55%) | Any new ulcers formed during study? No new ([2]; Active n = 71, number (%)): 24 (34%) | Cardinal Ulcer Healed ([2]; Active n = 71, number (%)): 44 (62%) | Discontinuations: Adverse Event ([2]; Active n = 72, number (%) of subjects): 9 (13%) | Mean Change in Net Ulcer Burden Week 20 P value ([2]; Subgroup (ACA) Negative (n = 40/34)): 0.01 | Mean Change in Net Ulcer Burden Week 20 P value ([2]; Subgroup (ACA) Positive (n = 19/29)): 0.97 | Mean Change in Net Ulcer Burden Week 20 P value ([2]; Subgroup (ATA) Negative (n = 32/38)): 0.58 | Mean Change in Net Ulcer Burden Week 20 P value ([2]; Subgroup (ATA) Positive (n = 27/22)): 0.06 | Mean Change in Net Ulcer Burden Week 20 P value ([2]; Subgroup >2 active ulcers at Baseline (n = 10/10)): 0.51 | Mean Change in Net Ulcer Burden Week 20 P value ([2]; Subgroup ACA Negative/ATA Positive (n = 20/15)): 0.013 | Mean Change in Net Ulcer Burden Week 20 P value ([2]; Subgroup Diffuse SSc (n = 31/21)): 0.32 | Mean Change in Net Ulcer Burden Week 20 P value ([2]; Subgroup Limited SSc (n = 42/55 Active/Placebo)): 0.42 | Mean Change in Net Ulcer Burden Week 20 P value ([2]; Subgroup No PDEI background (n = 59/63)): 0.21 | Mean Change in Net Ulcer Burden Week 20 P value ([2]; Subgroup PDEI background (n = 12/13)): 0.90 | Mean Change in Net Ulcer Burden Week 20 P value ([2]; Subgroup ≦2 active ulcers at Baseline (n = 61/66)): 0.10 | Patient Global and Digital Ulcer pain VAS ([2]; Week 20): Improvement not reaching statistical significance | symptomatic relief of pain and functional deficits associated with ischemic vascular disease ([2]; patients with scleroderma and digital ulcers, orally administered): provided symptomatic relief of pain | change in net ulcer burden at Week 20, primary analysis ([2]; total population, versus placebo): did not achieve statistical significance
